# Reference: ChEMBL document CHEMBL3885881, “DrugMatrix”
# Organism: Rattus norvegicus
# Assay: DrugMatrix - Regimen: Daily Repeat
# Assay type: toxicity, organism-based, Sprague-Dawley
# Set-up: regimen Daily Repeat, gender Male, age 6-8 weeks
# Details: in vivo, po, route oral GAVAGE, vehicle .5 % CMC; for URIC ACID / ALANINE AMINOTRANSFERASE / ALBUMIN / ALKALINE PHOSPHATASE / ASPARTATE AMINOTRANSFERASE / BLOOD UREA NITROGEN / CARBON DIOXIDE / CHLORIDE / CHOLESTEROL / CREATINE PHOSPHOKINASE / CREATININE / GLUCOSE / LACTATE DEHYDROGENASE / LIPASE / PHOSPHORUS / POTASSIUM / SODIUM / TOTAL BILIRUBIN / TOTAL PROTEIN: tissue Plasma; for ABSOLUTE BASOPHIL / ABSOLUTE EOSINOPHIL / ABSOLUTE LYMPHOCYTE / ABSOLUTE MONOCYTE / ABSOLUTE SEGMENTED NEUTROPHIL / BASOPHIL / EOSINOPHIL / ERYTHROCYTE COUNT / HEMATOCRIT / HEMOGLOBIN / LEUKOCYTE COUNT / LYMPHOCYTE / MEAN CORPUSCULAR HEMOGLOBIN / MEAN CORPUSCULAR HEMOGLOBIN CONCENTRATION / MEAN CORPUSCULAR VOLUME / MONOCYTE / NEUTROPHIL / NUCLEATED RED BLOOD CELLS / PLATELET COUNT: tissue Blood
# [1] = 3 mg/kg, 120 h, dose level Low, time 5 day
# [2] = 29 mg/kg, 72 h, dose level High, time 3 day
# [3] = 29 mg/kg, 120 h, dose level High, time 5 day
smiles,measurement,setting,value
O=c1[nH]cc(F)c(=O)[nH]1 [FLUOROURACIL],URIC ACID,"3 mg/kg, 72 h, dose level Low, time 3 day",2.6 mg/dL
same,ABSOLUTE BASOPHIL,[1],0 CELLS/uL
same,ABSOLUTE EOSINOPHIL,[1],0 CELLS/uL
same,ABSOLUTE LYMPHOCYTE,[1],14436 CELLS/uL
same,ABSOLUTE MONOCYTE,[1],30.67 CELLS/uL
same,ABSOLUTE SEGMENTED NEUTROPHIL,[1],1566.67 CELLS/uL
same,BASOPHIL,[1],0%
same,EOSINOPHIL,[1],0%
same,ERYTHROCYTE COUNT,[1],6.23 x10E6/uL
same,HEMATOCRIT,[1],38.2%
same,HEMOGLOBIN,[1],14.4 G/DL
same,LEUKOCYTE COUNT,[1],16.03 x10E3/uL
same,LYMPHOCYTE,[1],88.67%
same,MEAN CORPUSCULAR HEMOGLOBIN,[1],23.13 pg
same,MEAN CORPUSCULAR HEMOGLOBIN CONCENTRATION,[1],37.73 G/DL
same,MEAN CORPUSCULAR VOLUME,[1],61.3 fL
same,MONOCYTE,[1],0.33%
same,NEUTROPHIL,[1],11%
same,NUCLEATED RED BLOOD CELLS,[1],0 /100WBC
same,PLATELET COUNT,[1],1198.67 x10E3/uL
same,ALANINE AMINOTRANSFERASE,[1],42.67 u/L
same,ALBUMIN,[1],4.47 G/DL
same,ALKALINE PHOSPHATASE,[1],303.33 u/L
same,ASPARTATE AMINOTRANSFERASE,[1],79 u/L
same,BLOOD UREA NITROGEN,[1],16 mg/dL
same,CARBON DIOXIDE,[1],27.67 mmol/L
same,CHLORIDE,[1],99.67 MEQ/L
same,CHOLESTEROL,[1],71 mg/dL
same,CREATINE PHOSPHOKINASE,[1],253.67 u/L
same,CREATININE,[1],0.22 mg/dL
same,GLUCOSE,[1],146 mg/dL
same,LACTATE DEHYDROGENASE,[1],229 u/L
same,LIPASE,[1],8.33 u/L
same,PHOSPHORUS,[1],11.5 mg/dL
same,POTASSIUM,[1],6.67 MEQ/L
same,SODIUM,[1],144.17 MEQ/L
same,TOTAL BILIRUBIN,[1],0.2 mg/dL
same,URIC ACID,[1],1.6 mg/dL
same,ABSOLUTE BASOPHIL,[2],0 CELLS/uL
same,ABSOLUTE EOSINOPHIL,[2],63.33 CELLS/uL
same,ABSOLUTE LYMPHOCYTE,[2],11413 CELLS/uL
same,ABSOLUTE MONOCYTE,[2],90.33 CELLS/uL
same,ABSOLUTE SEGMENTED NEUTROPHIL,[2],633.33 CELLS/uL
same,BASOPHIL,[2],0%
same,EOSINOPHIL,[2],0.67%
same,ERYTHROCYTE COUNT,[2],5.41 x10E6/uL
same,HEMATOCRIT,[2],34.9%
same,HEMOGLOBIN,[2],13.17 G/DL
same,LEUKOCYTE COUNT,[2],12.2 x10E3/uL
same,LYMPHOCYTE,[2],93.67%
same,MEAN CORPUSCULAR HEMOGLOBIN,[2],24.33 pg
same,MEAN CORPUSCULAR HEMOGLOBIN CONCENTRATION,[2],37.73 G/DL
same,MEAN CORPUSCULAR VOLUME,[2],64.5 fL
same,MONOCYTE,[2],0.67%
same,NEUTROPHIL,[2],5%
same,NUCLEATED RED BLOOD CELLS,[2],0.33 /100WBC
same,PLATELET COUNT,[2],1461.33 x10E3/uL
same,ALANINE AMINOTRANSFERASE,[2],43.33 u/L
same,ALBUMIN,[2],4.47 G/DL
same,ALKALINE PHOSPHATASE,[2],451.67 u/L
same,ASPARTATE AMINOTRANSFERASE,[2],81.67 u/L
same,BLOOD UREA NITROGEN,[2],15.67 mg/dL
same,CARBON DIOXIDE,[2],26.33 mmol/L
same,CHLORIDE,[2],101.67 MEQ/L
same,CHOLESTEROL,[2],58.67 mg/dL
same,CREATINE PHOSPHOKINASE,[2],429.33 u/L
same,CREATININE,[2],0.19 mg/dL
same,GLUCOSE,[2],206.33 mg/dL
same,LACTATE DEHYDROGENASE,[2],150.67 u/L
same,LIPASE,[2],8 u/L
same,PHOSPHORUS,[2],12.07 mg/dL
same,POTASSIUM,[2],6.46 MEQ/L
same,SODIUM,[2],143.2 MEQ/L
same,TOTAL BILIRUBIN,[2],0.17 mg/dL
same,TOTAL PROTEIN,[2],6.07 G/DL
same,URIC ACID,[2],2.17 mg/dL
same,ABSOLUTE BASOPHIL,[3],0 CELLS/uL
same,ABSOLUTE EOSINOPHIL,[3],58 CELLS/uL
same,ABSOLUTE LYMPHOCYTE,[3],4679.33 CELLS/uL
same,ABSOLUTE MONOCYTE,[3],33 CELLS/uL
same,ABSOLUTE SEGMENTED NEUTROPHIL,[3],263 CELLS/uL
same,BASOPHIL,[3],0%
same,EOSINOPHIL,[3],1%
same,ERYTHROCYTE COUNT,[3],6.26 x10E6/uL
same,HEMATOCRIT,[3],39%
same,HEMOGLOBIN,[3],15.3 G/DL
same,LEUKOCYTE COUNT,[3],5.03 x10E3/uL
same,LYMPHOCYTE,[3],93%
same,MEAN CORPUSCULAR HEMOGLOBIN,[3],24.43 pg
same,MEAN CORPUSCULAR HEMOGLOBIN CONCENTRATION,[3],39.23 G/DL
same,MEAN CORPUSCULAR VOLUME,[3],62.37 fL
same,MONOCYTE,[3],0.67%
same,NEUTROPHIL,[3],5.33%
same,NUCLEATED RED BLOOD CELLS,[3],0 /100WBC
same,PLATELET COUNT,[3],964.67 x10E3/uL
same,ALANINE AMINOTRANSFERASE,[3],23.67 u/L
same,ALBUMIN,[3],4.03 G/DL
same,ALKALINE PHOSPHATASE,[3],148.33 u/L
same,ASPARTATE AMINOTRANSFERASE,[3],75.67 u/L
same,BLOOD UREA NITROGEN,[3],18.67 mg/dL
same,CARBON DIOXIDE,[3],25 mmol/L
same,CHLORIDE,[3],102.67 MEQ/L
same,CHOLESTEROL,[3],89.67 mg/dL
same,CREATINE PHOSPHOKINASE,[3],751.33 u/L
same,CREATININE,[3],0.12 mg/dL
same,GLUCOSE,[3],106.67 mg/dL
same,LACTATE DEHYDROGENASE,[3],166.33 u/L
same,LIPASE,[3],7.33 u/L
same,PHOSPHORUS,[3],7.93 mg/dL
same,POTASSIUM,[3],5.82 MEQ/L
same,SODIUM,[3],150.33 MEQ/L
same,TOTAL BILIRUBIN,[3],0.17 mg/dL
same,TOTAL PROTEIN,[3],5.57 G/DL
same,URIC ACID,[3],0.93 mg/dL
